What is called IC50 is the point on the concentration scale where inhibition reaches its midpoint.

In patent publication US11186580B2, “Crystalline forms of a phosphoinositide 3-kinase (PI3K) inhibitor” (Incyte Corporation, priority 2018, dated 2021) one finds IC50 data, which are given here for four compounds.

The structures appear in SMILES notation. Like-named read-outs stand apart in the source and are kept apart here.

The target of assay [1] is PI3Kγ (p110γ) Recombinant Human Protein (Homo sapiens (Human), UniProt P48736). As to the kind of experiment: PI3K-γ Scintillation Proximity Assay. The assay is classed as biochemical. As to conditions: 2 μM ATP, 20 μM PIP2, 13 nM PI3Kγ. The text has this:
PI3K-γ Scintillation Proximity Assay
[γ-^33]ATP (10 mCi/mL) and Wheat Germ Agglutinin (WGA) YSi SPA Scintillation Beads was purchased from Perkin-Elmer (Waltham, Mass.). Lipid kinase substrate, D-myo-Phosphatidylinositol 4,5-bisphosphate (PtdIns(4,5)P2)D (+)-sn-1,2-di-O-octanoylglyceryl, 3-O-phospho linked (PIP2), CAS 204858-53-7, was purchased from Echelon Biosciences (Salt Lake City, Utah). PI3Kγ (p110γ) Recombinant Human Protein was purchased from Life technology (Grand Island, N.Y.). ATP, MgCl2, DTT, EDTA, MOPS and CHAPS were purchased from SigmaAldrich (St. Louis, Mo.).
The kinase reaction was conducted in polystyrene 384-well Greiner Bio-one white plate from Thermo Fisher Scientific in a final volume of 25 μL. Inhibitors were first diluted serially in DMSO and added to the plate wells before the addition of other reaction components. The final concentration of DMSO in the assay was 2%. The PI3Kγ assay was carried out at room temperature in 20 mM MOPS, pH 6.7, 10 mM MgCl2, 5 mM DTT and CHAPS 0.03%. Reactions were initiated by the addition of ATP, the final reaction mixture consisted of 20 μM PIP2, 2 μM ATP, 0.5 μCi [γ-^33P] ATP, 13 nM PI3Kγ. […] After the plate sealing, plates were shaken overnight at room temperature and centrifuged at 1500 rpm for 10 min, the radioactivity of the product was determined by scintillation counting on Topcount (Perkin-Elmer). […]
A general note: Scintillation proximity formats need no separation of bound from free tracer.

Assay [2] has as its target PI3Kδ (p110δ/p85α) Recombinant Human Protein (Homo sapiens (Human), UniProt O00329). As to the kind of experiment: PI3Kδ Scintillation Proximity Assay. The assay is classed as biochemical. To be noted: 2 μM ATP, 20 μM PIP2, 3.4 nM PI3Kδ. The text has this: PI3Kδ Scintillation Proximity Assay
[γ-^33P]ATP (10 mCi/mL) and Wheat Germ Agglutinin (WGA) YSi SPA Scintillation Beads was purchased from Perkin-Elmer (Waltham, Mass.). Lipid kinase substrate, D-myo-Phosphatidylinositol 4,5-bisphosphate (PtdIns(4,5)P2)D (+)-sn-1,2-di-O-octanoylglyceryl, 3-O-phospho linked (PIP2), CAS 204858-53-7, was purchased from Echelon Biosciences (Salt Lake City, Utah). PI3Kδ (p110δ/p85α) Recombinant Human Protein was purchased from Eurofins (St Charles, Mo.). ATP, MgCl2, DTT, EDTA, MOPS and CHAPS were purchased from SigmaAldrich (St. Louis, Mo.).
The kinase reaction was conducted in polystyrene 384-well Greiner Bio-one white plate from Thermo Fisher Scientific in a final volume of 25 μL. Inhibitors were first diluted serially in DMSO and added to the plate wells before the addition of other reaction components. The final concentration of DMSO in the assay was 2%. The PI3Kδ assay was carried out at room temperature in 20 mM MOPS, pH 6.7, 10 mM MgCl2, 5 mM DTT and CHAPS 0.03%. Reactions were initiated by the addition of ATP, the final reaction mixture consisted of 20 μM PIP2, 2 μM ATP, 0.5 μCi [γ-^33P] ATP, 3.4 nM PI3Kδ. Reactions were incubated for 120 min and terminated by the addition of 40 μL SPA beads suspended in quench buffer: 163 mM potassium phosphate pH 7.8, 20% glycerol, 25 mM EDTA. The final concentration of SPA beads is 1.0 mg/mL. After the plate sealing, plates were shaken overnight at room temperature and centrifuged at 1500 rpm for 10 min, the radioactivity of the product was determined by scintillation counting on Topcount (PerkinElmer). IC50 determination was performed by fitting the curve of percent of the solvent control activity versus the log of the inhibitor concentration using the GraphPad Prism 6.0 software.

Assay [3] concerns Phosphorylated Ribosomal Protein S6 (RPS6) in THP-1 cells (PI3Kγ). As to the kind of experiment: THP-1 RPS6 ELISA Assay. The assay is classed as cell-based, Human. As to conditions: 10 nM MCP-1 for 15 minutes, Phospho-RPS6 ELISA, read-out: PI3Kγ_THP1_RPS6_ELISA IC50. The protocol: To measure the Phosphorylated Ribosomal Protein S6 (RPS6) in cell lysates, THP-1 cells (Human Acute Monocytic Leukemia) are purchased from ATCC (Manassas, Va.) and maintained in RPMI with 10% FBS (Gibco/Life Technologies, Carlsbad, Calif.). For the assay, THP-1 cells are serum starved overnight in RPMI, then plated in RPMI (2×10^5 cells/well in 90 μL) into 96-well flat-bottom tissue culture treated plates (Corning, Corning, N.Y.), in the presence or absence of a concentration range of test compounds. Covered plates are incubated for 2 hours at 37° C., 5% CO2 then treated with or without 10 nM MCP-1(MYBioSource, San Diego, Calif.) for 15 minutes at 37° C., 5% CO2. Plates are centrifuged at 1600 RPM and supernatants are removed. Cells are lysed in Lysis Buffer (Cell Signaling, Danvers, Mass.) with Protease Inhibitor (Calbiochem/EMD, Germany), PMSF (Sigma, St Louis Mo.), HALTS (Thermo Fisher, Rockford, Ill.) for 30 min on wet ice. Cell lysates are frozen at −80° C. before testing. The lysates are tested in the Human/Mouse/Rat Phospho-RPS6 ELISA (R&D Systems, Inc. Minn, Minn.). The plate is measured using a microplate reader (SpectraMax M5—Molecular Devices, LLC Sunnyvale, Calif.) set to 450 nm with a wavelength correction of 540. IC50 determination is performed by fitting the curve of inhibitor percent inhibition versus the log of the inhibitor concentration using the GraphPad Prism 5.0 software.
A general note: In an ELISA, binding on a coated surface is turned into a signal by an enzyme label.

Chain of PI3Kδ (p110δ/p85α) Recombinant Human Protein (O00329 whole entry): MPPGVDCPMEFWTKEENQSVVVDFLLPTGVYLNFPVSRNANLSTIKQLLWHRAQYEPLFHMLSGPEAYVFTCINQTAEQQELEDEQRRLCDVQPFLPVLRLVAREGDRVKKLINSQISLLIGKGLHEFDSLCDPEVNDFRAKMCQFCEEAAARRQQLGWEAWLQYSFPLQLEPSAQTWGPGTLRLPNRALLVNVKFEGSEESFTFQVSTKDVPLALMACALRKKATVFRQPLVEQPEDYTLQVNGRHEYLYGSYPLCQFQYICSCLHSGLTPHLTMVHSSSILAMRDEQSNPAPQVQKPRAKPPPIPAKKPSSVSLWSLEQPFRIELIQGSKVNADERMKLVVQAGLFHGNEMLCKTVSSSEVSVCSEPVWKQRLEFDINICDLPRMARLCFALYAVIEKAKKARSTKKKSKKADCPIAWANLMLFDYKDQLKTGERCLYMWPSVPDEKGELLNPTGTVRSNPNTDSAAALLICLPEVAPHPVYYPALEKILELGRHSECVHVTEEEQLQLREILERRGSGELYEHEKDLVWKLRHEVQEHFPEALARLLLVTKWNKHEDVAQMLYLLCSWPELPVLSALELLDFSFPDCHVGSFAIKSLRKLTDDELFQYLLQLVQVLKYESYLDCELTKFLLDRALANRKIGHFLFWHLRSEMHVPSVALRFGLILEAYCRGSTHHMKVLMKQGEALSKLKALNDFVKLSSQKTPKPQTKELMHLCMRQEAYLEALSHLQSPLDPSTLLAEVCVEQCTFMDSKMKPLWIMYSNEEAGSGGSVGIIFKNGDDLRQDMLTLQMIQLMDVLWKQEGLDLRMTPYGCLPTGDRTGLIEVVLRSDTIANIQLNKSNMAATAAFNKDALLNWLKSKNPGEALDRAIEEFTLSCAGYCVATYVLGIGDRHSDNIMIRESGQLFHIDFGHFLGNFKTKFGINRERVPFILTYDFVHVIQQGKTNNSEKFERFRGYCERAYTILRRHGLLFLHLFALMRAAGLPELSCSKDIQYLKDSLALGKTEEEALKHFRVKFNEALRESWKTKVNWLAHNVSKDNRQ
Chain of PI3Kδ (p110δ/p85α) Recombinant Human Protein (P27986 whole entry partner): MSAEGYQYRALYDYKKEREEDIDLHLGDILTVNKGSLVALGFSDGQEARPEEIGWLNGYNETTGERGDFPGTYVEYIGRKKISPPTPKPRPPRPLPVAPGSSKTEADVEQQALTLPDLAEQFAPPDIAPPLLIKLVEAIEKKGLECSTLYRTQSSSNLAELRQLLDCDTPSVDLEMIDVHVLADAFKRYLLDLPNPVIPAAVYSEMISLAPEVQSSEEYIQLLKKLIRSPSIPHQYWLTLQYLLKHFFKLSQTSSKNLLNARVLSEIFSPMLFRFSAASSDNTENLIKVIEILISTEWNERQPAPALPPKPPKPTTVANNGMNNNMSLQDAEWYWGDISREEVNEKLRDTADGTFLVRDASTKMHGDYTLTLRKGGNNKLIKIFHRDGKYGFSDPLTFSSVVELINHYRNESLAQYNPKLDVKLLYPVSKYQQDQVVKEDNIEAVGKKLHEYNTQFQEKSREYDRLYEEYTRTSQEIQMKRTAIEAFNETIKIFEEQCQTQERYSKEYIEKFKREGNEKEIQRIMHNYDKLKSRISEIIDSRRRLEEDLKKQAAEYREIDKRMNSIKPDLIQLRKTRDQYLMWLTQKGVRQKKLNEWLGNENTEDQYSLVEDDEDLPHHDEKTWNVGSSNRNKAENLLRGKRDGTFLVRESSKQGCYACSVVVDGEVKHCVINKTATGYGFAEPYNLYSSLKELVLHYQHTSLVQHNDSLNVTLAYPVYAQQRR
Chain of PI3Kγ (p110γ) Recombinant Human Protein (P48736 whole entry): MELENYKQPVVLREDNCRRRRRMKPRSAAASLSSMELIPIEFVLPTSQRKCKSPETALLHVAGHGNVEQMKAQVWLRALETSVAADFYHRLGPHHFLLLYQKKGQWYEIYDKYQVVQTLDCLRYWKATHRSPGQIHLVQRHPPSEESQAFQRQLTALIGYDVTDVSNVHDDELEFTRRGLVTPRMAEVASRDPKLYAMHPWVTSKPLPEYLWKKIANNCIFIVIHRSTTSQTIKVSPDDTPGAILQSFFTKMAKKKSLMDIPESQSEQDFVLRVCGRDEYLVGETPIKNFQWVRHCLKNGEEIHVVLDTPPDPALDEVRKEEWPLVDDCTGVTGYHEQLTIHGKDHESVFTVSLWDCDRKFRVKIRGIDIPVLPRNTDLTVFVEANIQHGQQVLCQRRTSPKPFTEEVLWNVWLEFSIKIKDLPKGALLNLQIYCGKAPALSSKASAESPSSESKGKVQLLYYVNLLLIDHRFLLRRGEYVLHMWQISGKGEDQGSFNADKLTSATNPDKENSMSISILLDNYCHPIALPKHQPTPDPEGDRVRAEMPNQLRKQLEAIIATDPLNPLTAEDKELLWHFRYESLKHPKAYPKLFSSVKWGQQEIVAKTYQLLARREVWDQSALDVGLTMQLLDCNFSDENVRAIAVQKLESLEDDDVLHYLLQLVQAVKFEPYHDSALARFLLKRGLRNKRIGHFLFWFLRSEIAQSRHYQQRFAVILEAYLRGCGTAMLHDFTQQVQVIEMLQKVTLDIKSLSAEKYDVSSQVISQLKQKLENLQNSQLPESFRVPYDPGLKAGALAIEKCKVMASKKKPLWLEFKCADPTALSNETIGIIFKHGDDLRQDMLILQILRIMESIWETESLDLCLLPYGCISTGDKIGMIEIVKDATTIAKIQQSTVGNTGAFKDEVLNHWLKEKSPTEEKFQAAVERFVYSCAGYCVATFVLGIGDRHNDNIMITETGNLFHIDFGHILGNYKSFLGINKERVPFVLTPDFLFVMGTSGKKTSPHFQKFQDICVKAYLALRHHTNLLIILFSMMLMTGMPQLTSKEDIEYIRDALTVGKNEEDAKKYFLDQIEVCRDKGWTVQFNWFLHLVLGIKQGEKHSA

For `Cc1ccc(C(O)(C(N)=O)C(F)(F)F)cc1-c1cnc2c(N)nc(C(F)(F)F)cn12` (single isomer, unassigned) [Example 1, 2-(3-(8-Amino-6-(trifluoromethyl)imidazo[1,2-a]pyrazin-3-yl)-4-methylphenyl)-3,3,3-trifluoro-2-hydroxypropanamide], the IC50 in assay [1] and in assay [2] was less than 100 nM in each case. `Cc1ccc(C(C)(O)C(F)(F)F)cc1-c1cnc2c(N)nc(C(=O)NCC(C)(C)O)cn12` (single isomer, unassigned) [Example 5, 8-Amino-N-(2-hydroxy-2-methylpropyl)-3-(2-methyl-5-(1,1,1-trifluoro-2-hydroxypropan-2-yl)phenyl)imidazo[1,2-a]pyrazine-6-carboxamide]: the IC50 in assay [2] is less than 500 nM; in assay [3] (Homo sapiens, THP-1, 0.25 h), greater than 1000 nM. On to `Cc1ccc(C(C)(O)C(F)(F)F)cc1-c1cnc2c(N)nc(C(=O)NCC(C)(C)O)cn12` (single isomer, unassigned) [Example 6, 8-Amino-N-(2-hydroxy-2-methylpropyl)-3-(2-methyl-5-(1,1,1-trifluoro-2-hydroxypropan-2-yl)phenyl)imidazo[1,2-a]pyrazine-6-carboxamide], for which the IC50 in assay [2] and in assay [3] was less than 500 nM each time.

Regarding `[2H]C([2H])([2H])c1ccc(C(C)(O)C(F)(F)F)cc1-c1cnc2c(N)nc(C(=O)NCC(C)(C)O)cn12` (single isomer, unassigned) [Example 9, 8-Amino-N-(2-hydroxy-2-methylpropyl)-3-(2-(methyl-d3)-5-(1,1,1-trifluoro-2-hydroxypropan-2-yl)phenyl)imidazo[1,2-a]pyrazine-6-carboxamide], the IC50 in assay [3] (Homo sapiens, THP-1, 0.25 h) is less than 500 nM.
